Read-outs that look alike come from different tables or passages of the source.
Key:
P450 1A2 = target: T1, P450 1A2 (Homo sapiens, UniProt P05177)
T1 sequence (P05177 1-516): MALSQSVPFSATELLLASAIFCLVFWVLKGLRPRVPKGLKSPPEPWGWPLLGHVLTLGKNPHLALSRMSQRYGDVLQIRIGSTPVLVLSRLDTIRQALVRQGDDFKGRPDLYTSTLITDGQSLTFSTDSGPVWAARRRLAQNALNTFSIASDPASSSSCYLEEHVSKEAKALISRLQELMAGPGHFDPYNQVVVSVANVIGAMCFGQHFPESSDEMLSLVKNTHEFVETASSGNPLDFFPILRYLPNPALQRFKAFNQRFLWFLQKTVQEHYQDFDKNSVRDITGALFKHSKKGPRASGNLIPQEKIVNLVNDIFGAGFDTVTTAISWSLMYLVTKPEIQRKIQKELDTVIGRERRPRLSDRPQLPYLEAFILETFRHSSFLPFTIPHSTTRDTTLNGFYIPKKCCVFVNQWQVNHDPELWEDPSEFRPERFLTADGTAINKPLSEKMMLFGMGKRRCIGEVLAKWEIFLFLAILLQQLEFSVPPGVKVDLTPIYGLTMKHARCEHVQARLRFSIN

Limk1 [1] = target: T2, Limk1 (Homo sapiens, UniProt P53667); assay: Limk1 biochemical assay (Reaction Biology, 10-dose IC50); design: His; purchased Reaction Biology Corporation; host or cells: insect cells; conditions: means of ≥2 experiments
Target sequence in this assay (P53667 285-638): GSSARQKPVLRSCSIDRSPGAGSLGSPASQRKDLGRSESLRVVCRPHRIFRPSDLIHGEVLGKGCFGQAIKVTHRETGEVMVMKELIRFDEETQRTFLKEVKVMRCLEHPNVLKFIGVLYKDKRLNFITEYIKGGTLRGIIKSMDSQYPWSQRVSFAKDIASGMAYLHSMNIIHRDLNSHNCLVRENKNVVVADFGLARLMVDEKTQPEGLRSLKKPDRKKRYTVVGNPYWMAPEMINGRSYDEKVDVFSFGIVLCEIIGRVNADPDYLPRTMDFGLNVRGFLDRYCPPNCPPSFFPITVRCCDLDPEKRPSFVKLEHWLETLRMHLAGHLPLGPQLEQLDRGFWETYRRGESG

P450 3A4 = P450 3A4 (Homo sapiens, UniProt P08684); assay: P450 inhibition at 10 μM; format: in vitro ADME
P450 2D6 = P450 2D6 (Homo sapiens, UniProt P10635); assay: P450 inhibition at 10 μM; format: in vitro ADME
ROCK-I = ROCK-I (Homo sapiens, UniProt Q13464); assay: ROCK-I biochemical counter-screen; conditions: Table 6; read-out: Biochemical Inhibition IC50 (nM) ROCK-I
[2] = Plasma pharmacokinetics studies on rats; conditions: for Cmax: read-out: Cmax (iv)
Procedure: In vivo pharmacokinetics (PK) studies were conducted for selected compounds during the whole optimization at various stages in order to identify structural elements that are favorable for in vivo applications, and/or to evaluate the feasibility of optimized Limk inhibitors for animal studies.

PC-3 cells [3] = assay: In vitro invasion assay in PC-3 cells; format: cell-based; conditions: Homo sapiens, 48 hours, compared to the control
Procedure: Transwell chambers coated with GFR Matrigel (BD Biosciences) were used for measurement of cell invasion. The matrigel was solidified at 37° C. in a humidified incubator the day before the assay. PC3 cells (1×10^3 cells per well) were grown in serum-free RPMI1640 media in the upper side of the insert. The lower well was filled with RPMI 1640 supplemented with 10% FBS with a Limk inhibitor (1 μM). PC3 cells were incubated at 37° C. in a humidified atmosphere containing 5% CO2 for 48 h. Then transwell membrane was rinsed three times with PBS, and the cells were fixed in 2.5% EM grade glutaraldehyde for 15 min at room temperature (RT) with no shaking. After removing glutaraldehyde by aspirating, the cells were permeabilized with 0.5% Triton X-100 in PBS for 3 min at RT, and they were rinsed three times with PBS. Then, the cells were stained by Gill's hematoxylin No. 1 for 15 min at RT, and they were washed by distilled water for three times. To remove any residual stain, the cells were washed by acid alcohol for 3 minutes and then rinsed by distilled water twice. The cells were exposed with 0.04% NH4OH until a blue color is observed on the membrane and then rinsed by distilled water twice. The membranes were dried overnight, and the stained cells were visualized under Leica DMI3000B microscope.

PC-3 cells [4] = assay: In vitro migration (wound closure) assay in PC-3 cells; format: cell-based; conditions: Homo sapiens, PC-3, 24 h, read-out: inhibition of migration of PC-3 cells
Procedure: PC3 cells were cultured to confluence at >90% in 6 well culture dishes in 10% FBS RPMI1640 media the day before the assay. Lines were drawn with a marker on the bottom of the dishes. Using a sterile 1 mL pipet tip, the dishes were scratched three separate wounds through the cells moving perpendicular to the line drawn in the step above. The cells were rinsed with PBS twice very gently and added the RPMI1640 media, and the dishes were taken pictures using phase contrast under Leica DMI3000B microscope.

[5] = test system: cofilin phosphorylation in A7r5 cells; assay: In-cell Western assay of cofilin phosphorylation in A7r5 cells; format: cell-based
Procedure: A7r5 (15,000 cells/well) were plated in a clear-bottomed Packard View black 96-well plate in 100 μl of 10% FBS DMEM:F12 medium and were allowed to attach overnight. The next day, the cells were serum starved in 1% FBS DMEM medium for 2 hr and then treated with the compounds for 1 hr. […] Next day, they were washed twice with PBS-0.1% Tween 20 (PBST) washing solution for 5 min each at room temperature on the orbital shaker, followed by one wash with Licor Blocking Buffer containing 0.05% Tween-20 for 5 min on the shaker at RT. The cells were then incubated with secondary antibody goat anti-rabbit IR800 (1:500 dilution) for 1 hr at RT in the dark (covered the plate with foil) in Licor blocking buffer-containing Tween-20. Following this, cells were washed twice with PBST for 5 min each at room temperature and then once with Licor blocking buffer-containing 0.05% Tween-20. The wells were then incubated with ToPro 3 stain (nucleic acid staining), diluted 1:4000 in Licor blocking buffer or Licor blocking buffer with 0.05% Tween-20 for 30 min at room temperature in the dark. Finally the plates were washed twice with PBS and analyzed using the Odyssey LICOR Infrared Scanner.

ROCK-II = ROCK-II (Homo sapiens, UniProt O75116); assay: ROCK-II biochemical counter-screen
[6] = Microsomal stability, rat liver microsomes; format: in vitro ADME
P450 2C9 = P450 2C9 (Homo sapiens, UniProt P11712); assay: P450 inhibition at 10 μM; format: in vitro ADME
[7] = IOP lowering on rat eyes, topical dosing; format: in vivo, Brown Norway rats
[8] = Microsomal stability, human liver microsomes; format: in vitro ADME
Limk1 [9] = target: T2, Limk1; conditions: reported by a Japanese group; read-out: Limk1 inhibition IC50; cited from earlier work
Target sequence in this assay (P53667 whole entry, species assumed): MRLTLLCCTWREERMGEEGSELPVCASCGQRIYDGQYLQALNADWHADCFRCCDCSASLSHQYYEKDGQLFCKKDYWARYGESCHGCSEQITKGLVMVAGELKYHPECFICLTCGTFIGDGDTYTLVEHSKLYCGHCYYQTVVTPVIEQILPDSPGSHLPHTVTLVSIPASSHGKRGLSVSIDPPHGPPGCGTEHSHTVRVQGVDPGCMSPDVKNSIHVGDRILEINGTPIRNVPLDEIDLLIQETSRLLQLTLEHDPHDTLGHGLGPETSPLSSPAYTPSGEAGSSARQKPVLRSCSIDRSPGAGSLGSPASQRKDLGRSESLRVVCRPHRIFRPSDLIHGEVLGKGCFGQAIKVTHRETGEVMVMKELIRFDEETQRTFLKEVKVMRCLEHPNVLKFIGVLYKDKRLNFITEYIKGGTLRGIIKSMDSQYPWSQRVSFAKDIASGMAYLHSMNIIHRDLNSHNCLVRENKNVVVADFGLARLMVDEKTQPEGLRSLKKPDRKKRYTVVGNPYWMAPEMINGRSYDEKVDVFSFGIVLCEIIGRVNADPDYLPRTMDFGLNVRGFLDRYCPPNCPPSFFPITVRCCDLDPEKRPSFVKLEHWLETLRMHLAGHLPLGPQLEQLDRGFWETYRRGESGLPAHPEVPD

Sequence of ROCK-II (O75116 whole entry, species assumed): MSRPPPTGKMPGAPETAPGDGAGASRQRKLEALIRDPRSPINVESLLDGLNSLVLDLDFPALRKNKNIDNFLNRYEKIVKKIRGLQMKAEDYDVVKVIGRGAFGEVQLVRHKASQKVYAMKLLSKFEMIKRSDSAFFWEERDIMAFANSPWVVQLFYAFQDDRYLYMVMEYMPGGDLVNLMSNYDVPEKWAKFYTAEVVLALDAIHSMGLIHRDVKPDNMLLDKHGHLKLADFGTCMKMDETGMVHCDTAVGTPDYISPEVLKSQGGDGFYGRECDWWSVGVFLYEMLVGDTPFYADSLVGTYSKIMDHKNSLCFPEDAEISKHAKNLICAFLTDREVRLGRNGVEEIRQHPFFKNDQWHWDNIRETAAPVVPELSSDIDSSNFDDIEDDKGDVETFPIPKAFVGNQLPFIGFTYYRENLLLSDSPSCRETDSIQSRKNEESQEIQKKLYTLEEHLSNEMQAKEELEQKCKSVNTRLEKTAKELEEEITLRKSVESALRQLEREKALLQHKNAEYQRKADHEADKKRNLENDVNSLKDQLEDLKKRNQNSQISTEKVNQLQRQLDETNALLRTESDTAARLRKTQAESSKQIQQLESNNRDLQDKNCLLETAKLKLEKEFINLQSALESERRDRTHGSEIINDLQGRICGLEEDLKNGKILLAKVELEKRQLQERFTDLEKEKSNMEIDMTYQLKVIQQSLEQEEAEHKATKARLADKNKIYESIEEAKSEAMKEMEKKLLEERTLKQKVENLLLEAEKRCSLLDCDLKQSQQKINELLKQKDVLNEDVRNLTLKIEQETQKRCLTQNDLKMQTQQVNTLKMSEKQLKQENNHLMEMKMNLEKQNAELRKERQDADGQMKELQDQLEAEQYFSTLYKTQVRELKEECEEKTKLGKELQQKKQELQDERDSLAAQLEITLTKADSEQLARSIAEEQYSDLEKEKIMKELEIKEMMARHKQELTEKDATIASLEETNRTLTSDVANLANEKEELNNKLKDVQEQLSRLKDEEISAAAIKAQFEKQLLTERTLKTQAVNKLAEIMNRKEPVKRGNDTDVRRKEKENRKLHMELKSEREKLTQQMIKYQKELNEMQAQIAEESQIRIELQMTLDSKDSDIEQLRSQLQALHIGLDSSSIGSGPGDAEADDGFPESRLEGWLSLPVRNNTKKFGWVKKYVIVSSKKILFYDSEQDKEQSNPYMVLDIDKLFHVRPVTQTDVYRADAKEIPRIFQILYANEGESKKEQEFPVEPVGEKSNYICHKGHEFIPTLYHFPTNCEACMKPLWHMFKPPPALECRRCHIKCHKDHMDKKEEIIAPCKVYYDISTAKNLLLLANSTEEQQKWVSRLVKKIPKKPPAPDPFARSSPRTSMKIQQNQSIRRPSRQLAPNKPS
Sequence of P450 2D6 (P10635 whole entry): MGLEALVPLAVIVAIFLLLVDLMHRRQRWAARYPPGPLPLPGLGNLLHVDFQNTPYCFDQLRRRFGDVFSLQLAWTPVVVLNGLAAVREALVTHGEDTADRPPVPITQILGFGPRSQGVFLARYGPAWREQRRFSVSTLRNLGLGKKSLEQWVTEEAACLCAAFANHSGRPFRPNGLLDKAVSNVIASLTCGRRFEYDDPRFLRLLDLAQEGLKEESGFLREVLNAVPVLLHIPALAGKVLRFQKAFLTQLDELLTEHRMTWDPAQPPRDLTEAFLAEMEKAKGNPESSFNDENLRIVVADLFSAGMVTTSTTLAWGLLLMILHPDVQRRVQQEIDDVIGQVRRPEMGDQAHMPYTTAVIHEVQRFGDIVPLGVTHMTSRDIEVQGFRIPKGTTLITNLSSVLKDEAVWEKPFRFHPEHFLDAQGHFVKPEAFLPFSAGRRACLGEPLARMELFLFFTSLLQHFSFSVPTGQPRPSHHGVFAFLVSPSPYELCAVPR
Sequence of P450 2C9 (P11712 whole entry): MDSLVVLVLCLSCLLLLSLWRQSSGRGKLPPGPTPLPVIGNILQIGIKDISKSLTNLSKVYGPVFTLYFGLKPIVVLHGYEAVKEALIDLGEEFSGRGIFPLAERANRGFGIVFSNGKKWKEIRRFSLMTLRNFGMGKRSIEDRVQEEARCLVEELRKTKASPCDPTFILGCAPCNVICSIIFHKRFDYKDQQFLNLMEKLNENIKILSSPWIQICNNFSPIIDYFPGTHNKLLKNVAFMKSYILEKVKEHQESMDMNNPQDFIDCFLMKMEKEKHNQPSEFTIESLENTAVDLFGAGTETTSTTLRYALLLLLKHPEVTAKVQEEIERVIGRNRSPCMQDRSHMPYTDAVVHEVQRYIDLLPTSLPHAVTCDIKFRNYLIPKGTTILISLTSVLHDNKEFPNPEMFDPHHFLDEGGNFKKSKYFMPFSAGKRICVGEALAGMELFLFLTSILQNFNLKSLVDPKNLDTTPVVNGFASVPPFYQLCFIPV
Sequence of P450 3A4 (P08684 whole entry): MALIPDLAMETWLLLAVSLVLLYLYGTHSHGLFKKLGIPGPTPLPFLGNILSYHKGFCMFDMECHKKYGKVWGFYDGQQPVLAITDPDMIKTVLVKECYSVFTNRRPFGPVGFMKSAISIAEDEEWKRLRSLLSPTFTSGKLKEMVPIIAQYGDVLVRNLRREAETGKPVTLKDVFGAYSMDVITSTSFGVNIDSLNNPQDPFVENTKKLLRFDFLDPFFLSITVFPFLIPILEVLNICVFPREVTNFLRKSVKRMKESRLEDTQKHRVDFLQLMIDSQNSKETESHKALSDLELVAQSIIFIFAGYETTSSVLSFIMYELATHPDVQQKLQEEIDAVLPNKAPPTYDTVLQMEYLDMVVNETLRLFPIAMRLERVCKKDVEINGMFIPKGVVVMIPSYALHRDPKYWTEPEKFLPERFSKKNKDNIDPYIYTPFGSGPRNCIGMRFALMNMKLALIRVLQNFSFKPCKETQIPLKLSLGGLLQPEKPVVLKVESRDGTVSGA

With `Cc1c[nH]c2ncnc(-c3ccc(NC(=O)N(CCO)c4ccccc4Cl)cc3)c12` [Compound 18f, 1-(2-Chlorophenyl)-1-(2-hydroxyethyl)-3-(4-(5-methyl-7H-pyrrolo[2,3-d]pyrimidin-4-yl)phenyl)urea] the “P450 % inh. at 10 μM 1A2” value (P450 1A2) was −4/39/1/37%, the IC50 (Limk1 [1]; Table 4, read-out: IC50 (nM) Limk1) was 58 nM and the “P450 % inh. at 10 μM 3A4” value (P450 3A4) was 37%. For the same molecule, the “P450 % inh. at 10 μM 2D6” value (P450 2D6) was 1%, the IC50 (ROCK-I) was 4390 nM and the “T1/2 (iv)” value ([2]; rat, in vivo, iv, 1 mg/kg) was 90 min. The “Yd (iv)” value ([2]; rat, in vivo, iv, 1 mg/kg) was 0.7 L/kg, the “AUC (iv)” value ([2]; rats, iv dosing 1 mg/kg) was 5.1 µM·h and the “Cl (iv)” value ([2]; rats, iv dosing 1 mg/kg) was 7.7 mL/min/kg. The “F (%) (po)” value ([2]; rats, po dosing 2 mg/kg) was 21%, the Cmax ([2]; rats, iv dosing 1 mg/kg) was 4.7 µM and the inhibition at 1 µM (PC-3 cells [3]) was 83%. For the same molecule, the inhibition at 0.1 µM (PC-3 cells [4]) was 13%, the inhibition at 1 µM (PC-3 cells [4]) was 76.1% and the inhibition at 10 µM (PC-3 cells [4]) was 81%. For the same molecule, the IC50 ([5]; A7R5, read-out: Cofilin Phosphorylation In A7r5 Cells (IC50, nM)) was 420 nM, the IC50 (ROCK-II; Table 4, means of ≥2 experiments, read-out: IC50 (nM) ROCK-II) was 3340 nM and the “Microsomal Stability t1/2 (min) Rat” value [6] was 38 min. For the same molecule, the “P450 % inh. at 10 μM 2C9” value (P450 2C9) was 39%.
In the case of `Cc1[nH]c2ncnc(-c3ccc(NC(=O)N(CCN(C)C)c4ccc(Cl)cc4)c(F)c3)c2c1C` [Compound 18w, 1-(4-Chlorophenyl)-3-(4-(5,6-dimethyl-7H-pyrrolo[2,3-d]pyrimidin-4-yl)-2-fluorophenyl)-1-(2-(dimethylamino)ethyl)urea], the “P450 % inh. at 10 μM 1A2” value (P450 1A2; 10 μM) is reported as 15%, the “maximal IOP decrease of the treated eye” value ([7]; 20 ul of […], from 1 to 4 hours, baseline 28 mmHg) is reported as ~6 mmHg and the “IOP drop on rat eyes” value ([7]; topical, dose of 50 μg) is reported as > 20%. The IC50 (Limk1 [1]; Table 5, read-out: Biochemical IC50 (nM) Limk1) was 19 nM, the “P450 % inh. at 10 μM 3A4” value (P450 3A4) was −9% and the “P450 % inh. at 10 μM 2D6” value (P450 2D6) was 20%. For the same molecule, the “AUC (iv)” value ([2]; rats, iv dosing 1 mg/kg) was 3.0 µM·h, the “Cl (iv)” value ([2]; rats, iv dosing 1 mg/kg) was 14.2 mL/min/kg and the “T1/2 (iv)” value ([2]; rats, iv dosing 1 mg/kg) was 198 min. For the same molecule, the “Yd (iv)” value ([2]; rats, iv dosing 1 mg/kg) was 1.5 L/kg, the Cmax ([2]; rats, iv dosing 1 mg/kg) was 2.4 µM and the IC50 ([5]; A7R5, A7r5 cells, read-out: Cofilin Phosphorylation In A7r5 Cells (IC50)) was 320 nM. The IC50 (ROCK-II; Table 5, means of ≥2 experiments, read-out: Biochemical IC50 (nM) ROCK-II) was > 20000 nM, the IC50 (ROCK-II; read-out: ROCK-II IC50) was > 20000 nM and the “Microsomal Stability t1/2 (min) Human” value [8] was 19 min. For the same molecule, the “Microsomal Stability t1/2 (min) Rat” value ([6]; rat liver microsomes) was 23 min and the “P450 % inh. at 10 μM 2C9” value (P450 2C9) was −23%.
In the case of `COc1c(C=O)c(O)cc2c1C(=O)c1ccccc1C2=O` [Damnacanthal], the IC50 (Limk1 [9]) is listed as ~800 nM.
